Measurements taken from BindingDB's records for doi:10.1080/14756360801945598 (Quaid-I-Azam University, 2009).

molecular target: Urease (Canavalia ensiformis, UniProt P07374); assay: Inhibition Assay
Description: In vitro inhibition assay using jack bean urease.

Urease, sequence (P07374 whole entry): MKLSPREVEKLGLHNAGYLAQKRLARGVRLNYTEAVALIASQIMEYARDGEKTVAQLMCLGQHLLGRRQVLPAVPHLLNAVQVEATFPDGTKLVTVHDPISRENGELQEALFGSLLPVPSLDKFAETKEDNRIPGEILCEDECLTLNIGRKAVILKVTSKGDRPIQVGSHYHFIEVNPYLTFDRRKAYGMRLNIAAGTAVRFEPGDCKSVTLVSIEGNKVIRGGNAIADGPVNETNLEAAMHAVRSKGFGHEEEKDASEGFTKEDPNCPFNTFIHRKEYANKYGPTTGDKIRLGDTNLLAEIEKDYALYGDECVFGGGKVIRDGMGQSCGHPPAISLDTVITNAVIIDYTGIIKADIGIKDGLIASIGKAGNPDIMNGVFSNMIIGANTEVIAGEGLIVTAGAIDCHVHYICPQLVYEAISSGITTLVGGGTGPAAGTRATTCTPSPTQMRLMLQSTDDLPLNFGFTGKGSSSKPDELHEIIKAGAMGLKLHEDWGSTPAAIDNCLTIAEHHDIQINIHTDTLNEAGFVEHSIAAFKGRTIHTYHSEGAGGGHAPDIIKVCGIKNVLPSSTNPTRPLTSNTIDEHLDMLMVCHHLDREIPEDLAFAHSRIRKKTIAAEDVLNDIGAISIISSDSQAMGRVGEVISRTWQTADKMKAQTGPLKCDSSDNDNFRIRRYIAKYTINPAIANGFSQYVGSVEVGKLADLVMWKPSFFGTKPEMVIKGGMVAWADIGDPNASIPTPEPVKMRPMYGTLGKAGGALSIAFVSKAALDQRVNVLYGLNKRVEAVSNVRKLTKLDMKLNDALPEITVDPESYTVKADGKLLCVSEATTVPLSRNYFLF

In order of falling IC50:
1. Oc1ccccc1C1CC(c2ccc(F)cc2)Sc2ccccc2N1 [2,3,4,5-Tetrahydro-1,5-benzothiazepine analog (2S,4R), 7]  93.7 µM
2. Oc1ccccc1C1CC(c2ccccc2)Sc2ccccc2N1 [2,3,4,5-Tetrahydro-1,5-benzothiazepine analog (2S,4R), 6]  91.2 µM
3. O=[N+]([O-])c1ccc(C2CC(c3ccccc3)=Nc3ccccc3S2)cc1 (stereo unspecified) [Dihydro-1,5-benzothiazepine analog, 5]  36.7 µM
4. c1ccc(C2=Nc3ccccc3SC(c3ccccc3)C2)cc1 (stereo unspecified) [Dihydro-1,5-benzothiazepine analog, 2]  26.3 µM
5. Cc1ccc(C2CC(c3ccccc3)=Nc3ccccc3S2)cc1 (stereo unspecified) [Dihydro-1,5-benzothiazepine analog, 3]  24.6 µM
6. O=COc1ccc(C2CC(c3ccccc3O)=Nc3ccccc3S2)cc1OC=O (stereo unspecified) [Dihydro-1,5-benzothiazepine analog, 4]  19.1 µM
